5 compounds from paper PMC9907720 (Antiviral research, 2022) can be followed below.

Where two headings read alike, the source gives them in different places. Some results are limits rather than exact numbers.

For orientation: IC50 means the concentration needed to halve the response being measured.

For one data set, the system named is CMV IE1 protein. As to the kind of experiment: Western blot of IE1 protein in AD169^R-infected NHDFs. Format: cell-based, Human cytomegalovirus. The settings on record: AD169^R-infected NHDF, 24hpi; MBX-4992 1-10 μM, ganciclovir 5 μM, convallotoxin 0.01 μM.
Another data set relates to respiratory syncytial. As to the kind of experiment: Other viral pathogens, respiratory syncytial virus. Format: cell-based. Particulars: data not shown.
In a further data set the test system is Akata. The settings on record: Akata cells, EBV assay.
The test system of another data set is MEF. Particulars: MCMV assay.
Data set [1] concerns AD169^R. Briefly: Virus pre-incubation wash / no wash infection assay. Format: cell-based, Human cytomegalovirus. Particulars: MBX-4992 pre-incubated with virus, 24hpi.
Another data set concerns HSV-2 G. Briefly: Herpes virus panel, HSV-2 CPE. It is filed as cell-based, Herpes simplex virus 2. Particulars: HFF.
Another data set has as its system GpCMV 22122. As to the kind of experiment: Herpes virus panel, GpCMV qPCR. Format: cell-based, Guinea pig cytomegalovirus. The settings on record: GpCMV 22122, GP Lung cells. (Real-time PCR tracks product formation cycle by cycle.)
The test system of the next data set is influenza A H1N1. Briefly: Other viral pathogens, influenza A H1N1. It is filed as cell-based. Particulars: data not shown.
The test system of a further data set is hepatitis B. As to the kind of experiment: Other viral pathogens, hepatitis B. Format: cell-based. Particulars: data not shown.
A further data set has as its system dengue. As to the kind of experiment: Other viral pathogens, dengue. It is filed as cell-based. The settings on record: data not shown.
The next data set has as its system HCMV GDGr K17 (GCV^R). It is filed as cell-based, Human cytomegalovirus. Particulars: HFF, CPE.
A further data set deals with BCBL-1. The settings on record: BCBL-1 cells, HHV-8 assay.
The next data set has as its system EBV Akata. Briefly: Herpes virus panel, EBV qPCR. It is filed as cell-based, Epstein-Barr virus. The settings on record: Akata cells.
A further data set concerns HCMV AD169. As to the kind of experiment: Herpes virus panel, HCMV AD169 CPE. Format: cell-based, Human cytomegalovirus. Particulars: HCMV AD169, HFF.
The test system of data set [2] is AD169^R and TB40/E strains. Briefly: Infectivity assay, AD169^R and TB40/E in NHDF and ARPE-19. It is filed as cell-based, Human cytomegalovirus. Particulars: read-out: IC50 values (range), NHDF and ARPE-19 cells, 24hpi.
The next data set has as its system HSV-1 E-377. As to the kind of experiment: Herpes virus panel, HSV-1 CPE. It is filed as cell-based, Herpes simplex virus 1. The settings on record: HSV-1 E-377, HFF.
The subject of a further data set is VZV Ellen. As to the kind of experiment: Herpes virus panel, VZV CPE. It is filed as cell-based, Varicella-Zoster virus. The settings on record: HFF.
A further data set deals with yellow fever. Format: cell-based.
In data set [3] the test system is AD169^R. Briefly: Cell pre-treatment wash / no wash infection assay. Format: cell-based, Human cytomegalovirus. Particulars: cells pre-treated, AD169^R 30 mins at 4°C; MBX-4992 10μM, heparin 50μg/ml; 24hpi.
Another data set has as its system MCMV Smith. As to the kind of experiment: Herpes virus panel, MCMV qPCR. It is filed as cell-based, Murine cytomegalovirus. Particulars: MEF.
The subject of a further data set is HHV-6B Z29. As to the kind of experiment: Herpes virus panel, HHV-6B qPCR. It is filed as cell-based, Human herpes virus 6B. The settings on record: HHV-6B Z29, MOLT-3, qPCR.
A further data set has as its system Zika virus. Briefly: Other viral pathogens, Zika virus. It is filed as cell-based. The settings on record: data not shown.
The next data set relates to HHV-8 BCBL-1. As to the kind of experiment: Herpes virus panel, HHV-8 qPCR. Format: cell-based, Human herpes virus 8. Particulars: HHV-8 BCBL-1, BCBL-1 cells.
The next data set relates to GP Lung. The settings on record: GP Lung cells, GpCMV assay.
Another data set has as its system MOLT-3. Particulars: MOLT-3, HHV-6B assay.
A further data set concerns AD169^IE2-YFP. As to the kind of experiment: High-content screening / dose response assay, AD169^IE2-YFP infection of HFF. It is filed as cell-based, Human cytomegalovirus. Particulars: read-out: anti-CMV activity IC50, secondary validation assays.
Data set [4] relates to TB40/E. As to the kind of experiment: Infectivity assay, TB40/E infection of NHDF. It is filed as cell-based, Human cytomegalovirus. The settings on record: TB40/E-infected NHDF, 24hpi.
Data set [5] concerns AD169^R. As to the kind of experiment: Infectivity assay, AD169^R infection of NHDF. Format: cell-based, Human cytomegalovirus. The settings on record: AD169^R-infected NHDF, 24hpi.
Data set [6] has as its system TB40/E. As to the kind of experiment: Infectivity assay, TB40/E infection of ARPE-19. Format: cell-based, Human cytomegalovirus. The settings on record: TB40/E-infected ARPE-19, 24hpi.
Data set [7] concerns AD169^R. Briefly: Infectivity assay, AD169^R infection of ARPE-19. Format: cell-based, Human cytomegalovirus. Particulars: AD169^R-infected ARPE-19, 24hpi.

`Nc1nc(O)c2ncn(COC(CO)CO)c2n1` [GCV, ganciclovir]: the “IE1 expression (Western blot)” value in the data set with CMV IE1 protein is on record as “did not impact IE1 expression”.
As for `Cc1nc(Nc2ccc(NC(=O)c3ccco3)cc2)cc(N2CCCC2)n1` [MBX-4992], the antiviral activity result in the data set with respiratory syncytial, in the data set with influenza A H1N1, with hepatitis B, in the data set with dengue, in the data set on yellow fever and in the data set with Zika virus was “did not exhibit activity” in each case. Besides, the CC50 was > 100 µM in the data set on Akata; > 150 µM with MEF; > 100 µM in the data set on BCBL-1; 119 µM in the data set with GP Lung; > 100 µM in the data set with MOLT-3; > 150 µM in the data set with HFF (HCMV AD169 assay). The CC50 was 60.6 µM with HFF (HSV-1 assay), > 150 µM in the data set on HFF (HSV-2 assay) and 139 µM in the data set with HFF (VZV assay). Also, in the data set on AD169^R [1], the “decrease of virus infection, virus pre-incubated then washed” value is listed as ~ 25%. The IC50 in the data set on HSV-2 G is > 150 µM; in the data set on GpCMV 22122, > 30 µM; in the data set on HCMV GDGr K17 (GCV^R) it was 1.8 µM; in the data set on EBV Akata, 30.9 µM; in the data set with HCMV AD169, 1.7 µM; in data set [2], 1.9 to 4.8 µM. In addition, the half-maximal inhibitory concentration (IC50) in the data set on HSV-1 E-377 was > 30 µM; in the data set with VZV Ellen, > 30 µM; in the data set with MCMV Smith, 4.5 µM; in the data set with HHV-6B Z29 it was 43.7 µM; with HHV-8 BCBL-1, 10 µM. Besides, the “IE1 expression (Western blot)” value in the data set on CMV IE1 protein was “decrease in IE1 expression”. The “virus infection, compound present during infection” value in the data set with AD169^R [3] is “significantly inhibited virus during infection”.
For the compound `Cc1nc(Nc2ccc(NC(=O)c3ccco3)cc2)cc(-n2cccn2)n1` [MBXC-4302], the IC50 in the data set with AD169^IE2-YFP is 3.2 µM; in the data set on TB40/E [4] it was ~4.5 µM; with AD169^R [5], 3 µM; in the data set with TB40/E [6] it was ~4.5 µM; in the data set on AD169^R [7], 5.8 µM.
Turning to `C[C@@H]1O[C@@H](O[C@H]2CC[C@]3(C=O)[C@H]4CC[C@]5(C)[C@@H](C6=CC(=O)OC6)CC[C@]5(O)[C@@H]4CC[C@]3(O)C2)[C@H](O)[C@H](O)[C@H]1O` [convallatoxin], the “IE1 expression (Western blot)” value in the data set with CMV IE1 protein is reported as “inhibited IE1 expression”.
Take heparin [reference compound]: the “virus infection, compound present during infection” value with AD169^R [3] is reported as “significantly inhibited virus during infection”.
